One may read the IC50 as the point on the concentration scale where inhibition reaches its midpoint.

Where two headings read alike, the source gives them in different places.

The values that follow come from patent publication US20120040930A1, “TETRACYCLIC TERPENE SERIES COMPOUNDS, METHODS FOR PREPARING SAME, USES THEREOF AS MEDICINES AND PHARMACEUTICAL COMPOUNDS CONTAINING SAME” (priority 2005, published 2012).

The experiment addresses T1, acetylcholinesterase (AChE) isolated from Electrophorus electricus (Electrophorus electricus, UniProt O42275).
T1 construct: AChE isolated from Electrophorus electricus; from tissue
Kind of experiment: biochemical.

[1] abbreviates: AChE isolated from Electrophorus electricus, read-out: AChE IC50.

T1 sequence (O42275 24-633): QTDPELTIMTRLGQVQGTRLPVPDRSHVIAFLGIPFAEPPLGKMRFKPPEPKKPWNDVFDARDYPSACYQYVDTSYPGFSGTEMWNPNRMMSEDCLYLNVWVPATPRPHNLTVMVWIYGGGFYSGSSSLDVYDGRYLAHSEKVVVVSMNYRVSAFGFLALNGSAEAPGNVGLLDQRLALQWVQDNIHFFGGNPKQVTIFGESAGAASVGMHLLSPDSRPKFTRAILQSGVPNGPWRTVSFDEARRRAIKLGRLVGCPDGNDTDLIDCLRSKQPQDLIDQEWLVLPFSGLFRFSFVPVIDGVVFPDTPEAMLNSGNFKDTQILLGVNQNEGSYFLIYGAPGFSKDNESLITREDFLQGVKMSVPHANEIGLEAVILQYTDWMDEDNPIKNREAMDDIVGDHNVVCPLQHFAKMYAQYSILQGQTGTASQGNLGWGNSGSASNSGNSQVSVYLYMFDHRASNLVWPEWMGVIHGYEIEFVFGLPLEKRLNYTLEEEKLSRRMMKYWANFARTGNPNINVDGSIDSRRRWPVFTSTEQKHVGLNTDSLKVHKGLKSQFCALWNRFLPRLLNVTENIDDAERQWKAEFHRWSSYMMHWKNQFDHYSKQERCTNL

Compound `CC(C)C(=O)N[C@H]1CCC23C[C@]24C(=O)C[C@]2(C)[C@@H]([C@H](C)N(C)C)[C@H](O)C[C@@]2(C)[C@@H]4CC[C@H]3[C@]1(C)CN` (stereo partly drawn) [Compound 49, (20S)-20-dimethylamino-3β-(isobutyrylamino)-9,19-cyclo-4α-aminomethyl-4β,14α-dimethyl-5α,9β-pregnan-16α-ol-11-one] yielded a half-maximal inhibitory concentration (IC50) (AChE IC50) of 1.34 µM. Turning to `CN[C@@H](C)[C@H]1[C@H](O)C[C@@]2(C)[C@@H]3CC[C@@H]4C(=CCC5N=C(C(C)C)OC[C@]54C)C[C@H]3C(=O)C[C@]12C` (stereo partly drawn) [Compound 33, (20S)-10(9->1)abeo-20-methylamino-4β,14α-dimethyl-(2′-isopropyl-3,29-dihydro-4H-[1,3]-oxazine)-5α,9β-pregn-1(10)-en-16α-ol-11-one], under setting [1], the half-maximal inhibitory concentration (IC50) was found to be 0.106 µM.

Regarding `CC(C)C(=O)N[C@H]1CCC23C[C@]24C(=O)C[C@]2(C)[C@@H]([C@H](C)N(C)C)[C@H](O)C[C@@]2(C)[C@@H]4CC[C@H]3[C@]1(C)CNC([Si](C)(C)C)[Si](C)(C)C` (stereo partly drawn) [Compound 55, (20S)-3β-isobutyrylamino-20-dimethylamino-9,19-cyclo-4β,14α-dimethyl-4α-(bis-(trimethylsilanyl)methylamino)methyl-5α,9β-pregnan-16α-ol-11-one], under setting [1], the IC50 is above 100 µM.

For the compound `CC(C)C(=O)N[C@H]1CCC23C[C@@]24[C@@H](CC[C@H]3[C@]1(C)CO)[C@]1(C)C[C@@H](O)[C@H]([C@H](C)N(C)C)[C@@]1(C)C[C@@H]4O` (stereo partly drawn) [Compound 34, (20S)-20-dimethylamino-3β-(isobutyrylamino)-9,19-cyclo-4α-hydroxymethyl-4β,14α-dimethyl-5α,9β-pregnan-11β,16α-diol-11-one], the IC50 under setting [1] is above 100 µM.

Consider “(20S)-3β-isobutyrylamino-20-methylamino-9,19-cyclo-4α-benzylaminomethyl-4β,14α-dimethyl-16α-pivalyl-5α,9β-pregnan-11-one [Compound 48]”, for which, under setting [1], the IC50 was determined as 17.5 µM. With `CC(C)C(=O)N[C@H]1CCC23C[C@]24C(=O)C[C@]2(C)[C@@H]([C@H](C)N(C)C)[C@H](OC(=O)C(C)(C)C)C[C@@]2(C)[C@@H]4CC[C@H]3[C@]1(C)CNCc1ccccc1` (stereo partly drawn) [Compound 47, (20S)-3β-isobutyrylamino-20-dimethylamino-9,19-cyclo-4α-benzylaminomethyl-4β,14α-dimethyl-16α-pivalyl-5α,9β-pregnan-11-one], under setting [1], the IC50 is 20.1 µM. For `CC(C)C(=O)N[C@H]1CC[C@]23CC24C(=O)C[C@]2(C)[C@@H]([C@H](C)N(C)C)[C@H](O)C[C@@]2(C)[C@@H]4CC[C@H]3[C@]1(C)CS` (stereo partly shown) [Compound 76], the IC50 under setting [1] was 43 µM. `CC[C@H](C)C(=O)N[C@H]1CC=C2C[C@H]3C(=O)C[C@]4(C)[C@@H]([C@H](C)N(C)C)[C@H](OC(C)=O)C[C@@]4(C)[C@@H]3CC[C@H]2[C@]1(C)CO` [Compound 65] had an IC50 (AChE IC50) of 7.94 µM. In turn, `CC(C)C1=NC2CCC34C[C@]35C(=O)C[C@]3(C)[C@@H]([C@H](C)N(C)C)[C@H](O)C[C@@]3(C)[C@@H]5CC[C@H]4[C@]2(C)CN1` (stereo partly drawn) [Compound 51, (20S)-20-dimethylamino-9,19-cyclo-4β,14α-dimethyl-(2-isopropyl-5β-methyl-1,4,5,6-tetrahydro-pyrimidin-5-yl)-5α,9β-pregnan-16α-ol-11-one] returned an IC50 (AChE IC50) of 0.018 µM. For the compound `CC[C@H](C)C(=O)N[C@H]1CCC23C[C@]24C(=O)C[C@]2(C)[C@@H]([C@H](C)N(C)C)[C@H](O)C[C@@]2(C)[C@@H]4CC[C@H]3[C@]1(C)CN` (stereo partly drawn) [Compound 63, (20S)-20-dimethylamino-3β-((S)-2-methylbutyrylamino)-9,19-cyclo-4α-aminomethyl-4β,14α-dimethyl-5α,9β-pregnan-16α-ol-11-one], under setting [1], the IC50 was 0.637 µM. In the case of `CC(C)C(=O)N[C@H]1CCC23C[C@]24C(=O)C[C@]2(C)[C@@H]([C@H](C)N(C)C)[C@H](OC(=O)C(C)(C)C)C[C@@]2(C)[C@@H]4CC[C@H]3[C@]1(C)CNC([Si](C)(C)C)[Si](C)(C)C` (stereo partly drawn) [Compound 56, (20S)-3β-isobutyrylamino-20-dimethylamino-9,19-cyclo-4β,14α-dimethyl-4α-(bis-(trimethylsilanyl)methylamino)methyl-16α-pivalyl-5α,9β-pregnan-11-one], under setting [1], the 50% inhibitory concentration (IC50) was above 100 µM.

For the compound `CC(C)C(=O)NC1CCC23C[C@]24C(=O)C[C@]2(C)[C@@H]([C@H](C)N(C)C)[C@H](OC(=O)C(C)(C)C)C[C@@]2(C)[C@@H]4CC[C@H]3[C@]1(C)CN` (stereo partly drawn) [Compound 50, (20S)-3β-isobutyrylamino-20-dimethylamino-9,19-cyclo-4α-aminomethyl-4β,14α-dimethyl-16α-pivalyl-5α,9β-pregnan-11-one], under setting [1], the IC50 amounted to 1.33 µM. Consider `CC1=N[C@H]2CC=C3C[C@H]4C(=O)C[C@]5(C)[C@@H]([C@H](C)N(C)C)[C@H](O)C[C@@]5(C)[C@@H]4CC[C@H]3[C@]2(C)CO1` [Compound 8a, (20S)-10(9->1)abeo-4,14α-dimethyl-20-dimethylamino(2′-methyl-4′,4′-dihydro[3′,1′]oxazin)-5α,9-pregn-1(10)-en-16α-ol-11-one], for which, under setting [1], the half-maximal inhibitory concentration (IC50) was 0.676 µM. For `CC(C)C(=O)N[C@H]1CCC23C[C@]24C(=O)C[C@]2(C)[C@@H]([C@H](C)N(C)C)[C@H](O)C[C@@]2(C)[C@@H]4CC[C@H]3[C@]1(C)CNCc1ccccc1` (stereo partly drawn) [Compound 46, (20S)-20-dimethylamino-3β-(isobutyrylamino)-9,19-cyclo-4α-benzylaminomethyl-4β,14α-dimethyl-5α,9β-pregnan-16α-ol-11-one], the IC50 under setting [1] was determined as 33.9 µM. For `CC[C@H](C)C(=O)N[C@H]1CC=C2C[C@H]3C(=O)C[C@]4(C)[C@@H]([C@H](C)N(C)C)[C@H](OC(C)=O)C[C@@]4(C)[C@@H]3CC[C@H]2[C@]1(C)C=O` [Compound 66], the IC50 under setting [1] was above 100 µM. On to `CC[C@H](C)C(=O)N[C@H]1CCC23C[C@]24C(=O)C[C@]2(C)[C@@H]([C@H](C)N(C)C)[C@H](O)C[C@@]2(C)[C@@H]4CC[C@H]3[C@]1(C)C=O` (stereo partly drawn) [Compound 60, (20S)-20-dimethylamino-3β-((S)-2-methylbutyrylamino)-9,19-cyclo-4α-formyl-4β,14α-dimethyl-5α,9β-pregnan-16α-ol-11-one], for which the half-maximal inhibitory concentration (IC50) under setting [1] was above 100 µM. With `CC(C)C(=O)N[C@H]1CCC23C[C@]24C(=O)C[C@]2(C)[C@@H]([C@H](C)N(C)C)[C@H](O[Si](C)(C)C(C)(C)C)C[C@@]2(C)[C@@H]4CC[C@H]3[C@]1(C)CNC([Si](C)(C)C)[Si](C)(C)C` (stereo partly drawn) [Compound 57, (20S)-3β-isobutyrylamino-20-dimethylamino-9,19-cyclo-4β,14α-dimethyl-4α-(bis-(trimethylsilanyl)methylamino)methyl-16α-(tert-butyl-dimethyl-silanyloxy)-5α,9β-pregnan-11-one], the IC50 under setting [1] is above 100 µM. With `CC[C@H](C)C(=O)N[C@H]1CC=C2C[C@H]3C(=O)C[C@]4(C)[C@@H]([C@H](C)N(C)C)[C@H](O)C[C@@]4(C)[C@@H]3CC[C@H]2[C@]1(C)CN` [Compound 70, (20S)-10(9->1)-abeo-20-dimethylamino-3-((S)-2-methylbutyrylamino)-4α-aminomethyl-4β,14α-dimethyl-5α,9β-pregn-1(10)-en-16α-ol-11-one], the 50% inhibitory concentration (IC50) (read-out: AChE IC50) was determined as 0.368 µM. Regarding `CC[C@H](C)C(=O)N[C@H]1CC=C2C[C@H]3C(=O)C[C@]4(C)[C@@H]([C@H](C)N(C)C)[C@H](O)C[C@@]4(C)[C@@H]3CC[C@H]2[C@]1(C)CNCc1ccccc1` [Compound 69, (20S)-10(9->1)abeo-20-dimethylamino-3β-((S)-2-methylbutyrylamino)-4α-benzylaminomethyl-4β,14α-dimethyl-5α,9β-pregn-1(10)-en-16α-ol-11-one], the IC50 under setting [1] was above 100 µM.

`CC(C)C1=NC2CCC34C[C@]35C(=O)C[C@]3(C)[C@@H]([C@H](C)N(C)C)[C@H](OC(=O)C(C)(C)C)C[C@@]3(C)[C@@H]5CC[C@H]4[C@]2(C)CN1` (stereo partly drawn) [Compound 52, (20S)-20-dimethylamino-9,19-cyclo-4β,14α-dimethyl-16α-pivalyl-(2′-isopropyl-1′/3′,3,29-tetrahydropyrimidine)-5α,9β-pregnan-11-one]: the concentration for half-maximal inhibition (IC50) under setting [1] came out at 0.029 µM. With `CC(=O)OC[C@]1(C)[C@@H](NC(=O)C(C)C)CCC23C[C@]24C(=O)C[C@]2(C)[C@@H]([C@H](C)N(C)C)[C@H](O)C[C@@]2(C)[C@@H]4CC[C@H]31` (stereo partly drawn) [Compound 41, (20S)-3β-isobutyrylamino-20-dimethylamino-9,19-cyclo-4β,14α-dimethyl-4α-acetylmethyl-5α,9β-pregnan-16α-ol-11-one], the half-maximal inhibitory concentration (IC50) under setting [1] was above 100 µM. As to `CC(C)[C@H]1N[C@H]2CC=C3C[C@H]4C(=O)C[C@]5(C)[C@@H]([C@H](C)N(C)C)[C@H](O)C[C@@]5(C)[C@@H]4CC[C@H]3[C@]2(C)CO1` [Compound 12, (20S)-10(9->1)abeo-4,14α-dimethyl-20-dimethylamino(2′β-isopropyl-1′,2′,4′,4′-tetrahydro[3′,1′]oxazin)-5α,9-pregn-1(10)-en-16α-ol-11-one], the IC50 under setting [1] is 0.823 µM. Still for that read-out and setting: the figure for `CC(C)C(=O)N[C@H]1CCC23C[C@]24C(=O)C[C@]2(C)[C@@H]([C@H](C)N(C)C)[C@H](OS(C)(=O)=O)C[C@@]2(C)[C@@H]4CC[C@H]3[C@]1(C)CO` (stereo partly drawn) [Compound 37, (20S)-3β-isobutyrylamino-20-dimethylamino-9,19-cyclo-4β,14α-dimethyl-4α-hydroxymethyl-16α-mesyl-5α,9β-pregnan-11-one] is at least 100 µM; for `CCC(C)C1=NC2CCC34C[C@]35C(=O)C[C@]3(C)[C@@H]([C@H](C)N(C)C)[C@H](O)C[C@@]3(C)[C@@H]5CC[C@H]4[C@]2(C)CN1` (stereo partly drawn) [Compound 64, (20S)-20-dimethylamino-9,19-cyclo-4β,14α-dimethyl-(2-(S)-sec-butyl-5β-methyl-1,4,5,6-tetrahydro-pyrimidin-5-yl)-5α,9β-pregnan-16α-ol-11-one] it is 0.014 µM.

Take `CC[C@H](C)C(=O)N[C@H]1CCC23C[C@]24C(=O)C[C@]2(C)[C@@H]([C@H](C)N(C)C)[C@H](OC(C)=O)C[C@@]2(C)[C@@H]4CC[C@H]3[C@]1(C)C=O` (stereo partly drawn) [Compound 59, (20S)-16α-acetyl-3β-((S)-2-methylbutyrylamino)-20-dimethylamino-9,19-cyclo-4α-formyl-4β,14α-dimethyl-5α,9β-pregnan-11-one]: under setting [1], the half-inhibitory concentration (IC50) is above 100 µM.
